Test results from the NIST ThermoML archive (doi:10.1016/j.fluid.2008.03.004).

Assay: xn = mol fraction of the nth substance listed
Details: 101 kPa, Liquid; for speed of sound: Sing-around technique in a fixed-path interferometer

COC(C)(C)C [2-methoxy-2-methylpropane] + Cc1ccc(C)cc1
Details	mass density, 295.65 K [kg/m3]	mass density, 298.15 K [kg/m3]	mass density, 300.65 K [kg/m3]	mass density, 303.15 K [kg/m3]	speed of sound, 298.15 K [m/s]	speed of sound, 300.65 K [m/s]	speed of sound, 303.15 K [m/s]	speed of sound, 305.65 K [m/s]
x1 = 0.051	–	851.161	848.97	846.775	1296.3	1286.1	1275.9	1265.7
x1 = 0.111	–	844.568	842.356	840.14	1282.7	1272.2	1261.8	1251.5
x1 = 0.199	–	834.598	832.351	830.102	1260.5	1249.9	1239.4	1228.9
x1 = 0.297	–	823.534	821.251	818.963	1235.5	1224.8	1214.2	1203.5
x1 = 0.394	–	812.151	809.83	807.503	1209.4	1198.7	1187.9	1177.3
x1 = 0.5	–	799.359	796.99	794.615	1180.1	1169.2	1158.4	1147.6
x1 = 0.591	790.564	788.159	785.75	783.333	1155.2	1144.2	1133.2	1122.3
x1 = 0.7	776.96	774.504	772.04	769.567	1124.7	1113.5	1102.4	1091.3
x1 = 0.799	763.998	761.487	758.97	756.446	1095.3	1084	1072.8	1061.6
x1 = 0.898	750.898	748.333	745.759	743.176	1066	1054.6	1043.3	1031.9
x1 = 0.949	744.102	741.507	738.9	736.284	1050.2	1038.8	1027.4	1016
x1 = 1	737.036	734.406	731.766	729.112	1036.9	1025.4	1013.9	1002.4
